Reference: patent US8426408B2, “Pyrimidine inhibitors of kinases” (AbbVie Inc., priority 2009, dated 2013)

Columns and labels:
KDR [1] = target: T1, KDR (Homo sapiens, UniProt P35968); experiment: KDR cellular assay (KDR receptor phosphorylation ELISA); assay type: cell-based; parameters: expressed in transfected cells; host or cells: 3T3 (embryonic mouse) cells; settings: KDR transfected 3T3 (embryonic mouse) cells, VEGF stimulated; read-out: IC50 inhibition of KDR phosphorylation
How it was run: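 KDR-transfected mouse 3T3 cells treated 20 min at 37° C with half-log compound dilutions, then stimulated 10 min with VEGF (100 ng/ml solution). Lysates captured on anti-KDR plates; phosphorylation by biotin antibody/streptavidin-HRP ELISA at 450 nm. IC50 by non-linear regression.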
Target sequence in this assay (P35968 20-1356): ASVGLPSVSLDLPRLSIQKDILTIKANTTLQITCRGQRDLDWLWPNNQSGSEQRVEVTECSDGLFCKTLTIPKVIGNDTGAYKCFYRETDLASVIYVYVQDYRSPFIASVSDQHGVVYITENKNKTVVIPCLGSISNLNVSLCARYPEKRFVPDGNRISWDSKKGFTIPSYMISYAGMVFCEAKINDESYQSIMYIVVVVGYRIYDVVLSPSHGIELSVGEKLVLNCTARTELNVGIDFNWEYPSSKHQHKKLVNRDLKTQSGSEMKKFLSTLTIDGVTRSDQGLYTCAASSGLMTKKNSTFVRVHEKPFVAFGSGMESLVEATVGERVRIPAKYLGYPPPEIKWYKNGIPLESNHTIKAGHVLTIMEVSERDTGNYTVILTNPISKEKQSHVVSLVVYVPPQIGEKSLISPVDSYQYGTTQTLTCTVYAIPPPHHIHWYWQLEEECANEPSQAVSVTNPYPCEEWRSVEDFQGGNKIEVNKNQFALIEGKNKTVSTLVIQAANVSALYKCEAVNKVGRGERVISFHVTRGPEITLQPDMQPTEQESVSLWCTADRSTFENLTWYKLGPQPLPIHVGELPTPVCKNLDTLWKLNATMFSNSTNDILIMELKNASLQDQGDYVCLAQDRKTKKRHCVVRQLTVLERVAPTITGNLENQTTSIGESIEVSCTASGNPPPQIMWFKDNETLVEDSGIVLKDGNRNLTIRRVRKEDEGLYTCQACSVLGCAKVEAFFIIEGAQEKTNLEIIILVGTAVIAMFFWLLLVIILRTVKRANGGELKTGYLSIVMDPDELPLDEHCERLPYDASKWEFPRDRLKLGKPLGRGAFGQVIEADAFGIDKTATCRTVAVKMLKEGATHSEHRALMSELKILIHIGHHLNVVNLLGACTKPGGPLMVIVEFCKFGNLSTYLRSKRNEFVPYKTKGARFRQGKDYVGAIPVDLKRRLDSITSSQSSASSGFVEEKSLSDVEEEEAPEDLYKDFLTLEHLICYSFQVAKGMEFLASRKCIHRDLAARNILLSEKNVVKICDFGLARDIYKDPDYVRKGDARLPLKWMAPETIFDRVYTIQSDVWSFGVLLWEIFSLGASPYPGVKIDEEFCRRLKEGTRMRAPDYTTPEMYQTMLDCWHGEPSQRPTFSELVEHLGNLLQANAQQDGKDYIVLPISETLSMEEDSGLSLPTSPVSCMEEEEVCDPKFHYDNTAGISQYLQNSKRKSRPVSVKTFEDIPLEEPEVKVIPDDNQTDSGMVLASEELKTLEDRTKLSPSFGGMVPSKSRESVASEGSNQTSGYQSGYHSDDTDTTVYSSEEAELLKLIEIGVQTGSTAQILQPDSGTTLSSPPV

Aurora B = target: T2, Aurora B (Homo sapiens, UniProt Q96GD4); experiment: Aurora B enzyme inhibition (time-resolved fluorescence, histone H3 peptide); assay type: biochemical; settings: 1 mM ATP
T2 construct: Active Aurora B enzyme (recombinant residues 1-344)
How it was run: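 Recombinant Aurora B (residues 1-344) with GST-INCENP phosphorylated biotinylated histone H3 (1-21) peptide at 1 mM ATP in HEPES pH 7.4 with MgCl2, orthovanadate and Triton X-100 for 1 h. After EDTA stop, the phosphopeptide was detected by TR-FRET (Eu-cryptate anti-phospho-H3 / SA-APC, 665/615 nm ratio). IC50 from an exponential fit.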

KDR [2] = target: T1, KDR; experiment: KDR HTRF in vitro kinase assay; assay type: biochemical; parameters: purified enzyme (His6-KDR 789-1354, MW 63 kD); His6 (N); settings: 1 mM ATP; read-out: KDR enzyme inhibition data (Ki)
How it was run: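 His6-KDR 789-1354 (7 ng/well) with 0.5 μM biotinylated peptide substrate and 1 mM ATP in HEPES pH 7.1, MgCl2/MnCl2, 60 min at room temperature. EDTA-quenched, detected by streptavidin-XL-665 plus Eu-kryptate anti-phosphotyrosine HTRF after 3 h; IC50 from 620/665 nm ratio.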
Target sequence in this assay (P35968 789-1354): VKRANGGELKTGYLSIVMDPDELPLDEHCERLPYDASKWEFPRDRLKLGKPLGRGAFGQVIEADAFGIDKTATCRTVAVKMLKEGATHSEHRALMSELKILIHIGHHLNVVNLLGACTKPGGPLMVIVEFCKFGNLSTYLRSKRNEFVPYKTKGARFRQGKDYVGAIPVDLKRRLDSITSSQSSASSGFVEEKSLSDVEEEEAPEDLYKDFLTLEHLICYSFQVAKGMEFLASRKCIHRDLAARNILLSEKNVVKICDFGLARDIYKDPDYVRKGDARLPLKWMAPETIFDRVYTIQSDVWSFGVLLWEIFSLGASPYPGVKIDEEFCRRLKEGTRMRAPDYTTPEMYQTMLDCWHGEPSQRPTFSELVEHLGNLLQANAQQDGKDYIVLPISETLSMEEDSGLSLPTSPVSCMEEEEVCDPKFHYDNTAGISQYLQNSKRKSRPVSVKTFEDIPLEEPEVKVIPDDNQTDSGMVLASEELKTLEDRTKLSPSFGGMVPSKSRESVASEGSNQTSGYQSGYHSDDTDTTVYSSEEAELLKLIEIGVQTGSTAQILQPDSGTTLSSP

T2 sequence (Q96GD4 whole entry, the tested form may be a part): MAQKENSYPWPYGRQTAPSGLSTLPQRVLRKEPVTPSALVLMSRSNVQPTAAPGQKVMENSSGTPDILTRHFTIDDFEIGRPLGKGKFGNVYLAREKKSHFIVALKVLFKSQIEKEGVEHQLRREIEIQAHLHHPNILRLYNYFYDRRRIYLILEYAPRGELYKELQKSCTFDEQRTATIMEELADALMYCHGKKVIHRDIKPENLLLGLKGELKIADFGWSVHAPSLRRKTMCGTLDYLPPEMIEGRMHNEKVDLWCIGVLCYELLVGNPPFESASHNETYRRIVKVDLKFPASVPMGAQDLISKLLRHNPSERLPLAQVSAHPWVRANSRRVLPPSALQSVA
T2 sequence (Q9NQS7 826-918 partner limits assumed): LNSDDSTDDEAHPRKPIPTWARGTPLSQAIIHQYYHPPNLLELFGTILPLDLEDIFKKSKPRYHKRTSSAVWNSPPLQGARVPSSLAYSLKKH

NC(=O)[C@@H]1[C@H](Nc2nc(Nc3cnn(C4CCNCC4)c3)ncc2Br)[C@H]2C=C[C@@H]1C2 [Example 95, (1S,2S,3R,4R)-3-[(5-bromo-2-{[1-(piperidin-4-yl)-1H-pyrazol-4-yl]amino}pyrimidin-4-yl)amino]bicyclo[2.2.1]hept-5-ene-2-carboxamide]
< 100 nM: IC50 (KDR [1]) | Ki (Aurora B) | Ki (KDR [2])

CN1CCN(CCn2cc(Nc3ncc(Br)c(N[C@H]4[C@@H](C(N)=O)[C@@H]5C=C[C@H]4C5)n3)cn2)CC1 [Example 94, (1S,2S,3R,4R)-3-{[5-bromo-2-({1-[2-(4-methylpiperazin-1-yl)ethyl]-1H-pyrazol-4-yl}amino)pyrimidin-4-yl]amino}bicyclo[2.2.1]hept-5-ene-2-carboxamide]
< 100 nM: IC50 (KDR [1]) | Ki (Aurora B) | Ki (KDR [2])

COCCn1cc(Nc2ncc(Cl)c(N[C@H]3[C@@H](C(N)=O)[C@@H]4C=C[C@H]3C4)n2)cn1 [Example 96, (1S,2S,3R,4R)-3-[(5-chloro-2-{[1-(2-methoxyethyl)-1H-pyrazol-4-yl]amino}pyrimidin-4-yl)amino]bicyclo[2.2.1]hept-5-ene-2-carboxamide]
< 100 nM: IC50 (KDR [1]) | Ki (Aurora B) | Ki (KDR [2])
